Experimental data from ChEMBL document CHEMBL1135719, “Structural basis of RasGRP binding to high-affinity PKC ligands” (J Med Chem, 2002).

Legend:
[1] = target: Protein kinase C delta type (Mus musculus, UniProt P28867); assay: Displacement of [3H]- PDBu from Protein kinase C delta C1b domain
[2] = target: T1, RAS guanyl-releasing protein 1 (Rattus norvegicus, UniProt Q9R1K8); assay: Binding affinity against RAS guanyl releasing protein using [3H]- PDBu as the labeled ligand
T1 sequence (Q9R1K8 whole entry): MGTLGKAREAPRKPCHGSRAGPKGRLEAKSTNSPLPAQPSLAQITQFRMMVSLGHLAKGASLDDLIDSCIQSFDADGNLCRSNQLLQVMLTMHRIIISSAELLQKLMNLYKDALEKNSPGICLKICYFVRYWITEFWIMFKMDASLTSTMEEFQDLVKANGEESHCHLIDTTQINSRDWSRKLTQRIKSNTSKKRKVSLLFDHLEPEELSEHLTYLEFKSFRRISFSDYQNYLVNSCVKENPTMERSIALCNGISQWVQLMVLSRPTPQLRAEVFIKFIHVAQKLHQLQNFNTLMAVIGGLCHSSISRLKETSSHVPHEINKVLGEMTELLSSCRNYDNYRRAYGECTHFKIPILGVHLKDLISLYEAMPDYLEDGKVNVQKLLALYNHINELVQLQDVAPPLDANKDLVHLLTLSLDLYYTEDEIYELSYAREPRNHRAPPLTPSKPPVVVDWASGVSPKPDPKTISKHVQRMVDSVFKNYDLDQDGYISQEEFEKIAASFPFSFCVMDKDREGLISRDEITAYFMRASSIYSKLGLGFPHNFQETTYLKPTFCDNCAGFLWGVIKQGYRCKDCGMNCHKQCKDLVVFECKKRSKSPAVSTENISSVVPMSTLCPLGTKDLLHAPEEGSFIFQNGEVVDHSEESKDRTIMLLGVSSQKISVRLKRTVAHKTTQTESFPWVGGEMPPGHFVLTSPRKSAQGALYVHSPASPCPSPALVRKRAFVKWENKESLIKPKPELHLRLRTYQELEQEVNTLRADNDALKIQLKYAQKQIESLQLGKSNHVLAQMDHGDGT

Protein kinase C delta type, sequence (P28867 whole entry, the tested form may be a part): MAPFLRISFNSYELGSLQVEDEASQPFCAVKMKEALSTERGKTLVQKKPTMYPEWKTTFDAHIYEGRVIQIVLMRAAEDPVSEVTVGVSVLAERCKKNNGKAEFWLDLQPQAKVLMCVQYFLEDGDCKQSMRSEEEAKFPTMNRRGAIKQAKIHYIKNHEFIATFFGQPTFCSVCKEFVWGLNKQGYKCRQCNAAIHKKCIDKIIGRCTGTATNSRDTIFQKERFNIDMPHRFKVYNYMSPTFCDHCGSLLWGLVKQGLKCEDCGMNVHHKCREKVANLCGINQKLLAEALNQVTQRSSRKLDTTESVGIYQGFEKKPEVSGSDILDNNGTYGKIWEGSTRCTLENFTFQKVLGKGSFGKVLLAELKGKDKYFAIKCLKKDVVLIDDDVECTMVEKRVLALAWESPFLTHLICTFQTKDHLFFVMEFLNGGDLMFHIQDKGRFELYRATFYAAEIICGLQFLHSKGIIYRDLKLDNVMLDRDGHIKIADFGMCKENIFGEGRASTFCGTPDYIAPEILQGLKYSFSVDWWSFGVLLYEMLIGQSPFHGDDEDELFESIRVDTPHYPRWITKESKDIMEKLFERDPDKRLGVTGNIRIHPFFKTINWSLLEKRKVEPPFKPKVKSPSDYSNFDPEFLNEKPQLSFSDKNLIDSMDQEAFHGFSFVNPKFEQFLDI

SMILES	Ki [1] [nM]	Ki [2] [nM]
CCCCCCCCc1ccc2c3c(c[nH]c13)C[C@@H](CO)NC(=O)[C@H](C(C)C)N2C	0.1	0.85
CCCCCCCCC#Cc1ccc2c(c1)C[C@@H](CO)NC(=O)[C@H](C(C)C)N2C	10.7	6.15
CCCCCCCCC#Cc1ccc2c(c1OC)C[C@@H](CO)NC(=O)[C@H](C(C)C)N2C	35.1	13.9
CC(C)[C@H]1C(=O)N[C@H](CO)Cc2c[nH]c3cccc(c23)N1C [INDOLACTUM]		2.54
